Measurements published in patent US20230144211A1, “ANTIFOLATE LINKER-DRUGS AND ANTIBODY-DRUG CONJUGATES” (Byondis B.V., priority 2020, published 2023).

Assays:
Experiment in all cases: In vitro cell viability assay (CellTiter-Glo, 6 days)
[1] = system: Jurkat NucLight Red cells; type: cell-based, human; conditions: Homo sapiens, Jurkat, free antifolate drugs
In short: (§1)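 Cells plated overnight, then given 10 serial log10 dilutions of free drug (1% final DMSO) or ADC in medium. After 6 days, CellTiter-Glo luminescence expressed as % of untreated control. IC50 taken as the midpoint of a 4-parameter logistic fit; mean of at least one experiment in duplicate.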

FaDu cells = type: cell-based; conditions: Homo sapiens, free antifolate drugs, Table 1d
Protocol: (§2) FaDu, BxPC-3, HeLa, MV4-11, and RAJI cell lines were obtained from Deutsche Sammlung von Mikroorganismen und Zellkulturen (Leipzig, Germany). Jurkat NucLight Red cells were obtained from Essen BioScience Inc. (Ann Arbor, Mich., USA). SK-BR-3 and SK-OV-3 cells were cultured in McCoys 5A medium (Lonza; Walkersville, Md., USA) supplemented with 10% v/w Fetal Bovine Serum (FBS), Heat-inactivated (HI) (Gibco-Life Technologies; Carlsbad, Calif.) and 80 U/mL Pen/Strep (Gibco-Life Technologies), at 37° C. in a humidified incubator under 5% CO2 atmosphere. SW-620 cells were similarly maintained in RPMI 1640 medium (Lonza), containing 10% v/w FBS HI and 80 U/mL Pen/Strep. A-549 cells were similarly maintained in F-12K Nutrient Mixture (1×) (Gibco-Life Technologies) media supplemented with 80 U/mL Pen/Strep and 5% v/w FBS, which was Qualified (Q) (Gibco-Life Technologies). BT-474 and AU-565 cells were similarly maintained in RPMI 1640 medium (Lonza), containing 10% v/w FBS, which was Qualified (Q) (Gibco-Life Technologies), and 80 U/mL Pen/Strep. […] Jurkat NucLight Red cells were similarly maintained in RPMI 1640 medium (Lonza), containing 10% v/w FBS HI, 80 U/mL Pen/Strep and 0.5 μg/mL Puromycin (Gibco-Life Technologies). FaDu cells were cultured in EMEM medium (Lonza) supplemented with 10% v/w FBS HI (Gibco-Life Technologies), 1× GlutaMAX (Gibco-Life Technologies), and 80 U/mL Pen/Strep (Gibco-Life Technologies), at 37° C. in a humidified incubator under 5% CO2 atmosphere.
(§3) After an overnight incubation, 10 serial log 10 dilutions of the free drugs were made in DMSO (Sigma-Aldrich). These free drug dose-response curves were 10-times further diluted in complete growth medium. For the ADCs according to the invention 10 serial log 10 dilutions were made in complete growth medium. 10 μL of a composition comprising a free drug or an ADC according to the invention was added to the assay plate (final DMSO content for free drugs was 1%). […] […] Percentage cell survival was calculated by dividing the measured luminescence for each free drug or ADC according to the concentration with the average mean of untreated cells (1% or 0.1% DMSO control (for free drugs) or 100% complete growth medium (for ADCs)) multiplied by 100.
(§4) Curves were fitted by non-linear regression using the sigmoidal dose-response equation with variable slope (four parameters) using curve-fitting software (GraphPad Prism, version 9.4.0 for Windows, GraphPad, San Diego, Calif. or Electronic Laboratory Notebook (ELN) add-in BioAssay, version 19.1.0.0218, Perkin Elmer, Waltham, Mass.). Relative IC50 values were calculated as the concentration that gives a response halfway between bottom and top of the curve, when using a 4-parameter logistic fit. Data were reported as mean IC50 value of at least one experiment performed in duplicate.

BxPC-3 cells = type: cell-based; conditions: Homo sapiens, free antifolate drugs, Table 1d
Protocol: as §2, §3, §4

Jurkat Clone E6-1 cells = type: cell-based; conditions: Homo sapiens, free antifolate drugs, Table 1d
Protocol: Human tumor cell lines SK-BR-3, SW-620, A-549, BT-474, Jurkat Clone E6-1, AU-565, and SK-OV-3 were obtained from American Type Culture Collection (Rockville, Md., USA). FaDu, BxPC-3, HeLa, MV4-11, and RAJI cell lines were obtained from Deutsche Sammlung von Mikroorganismen und Zellkulturen ([…], Germany). Jurkat NucLight Red cells were obtained from Essen BioScience Inc. (Ann Arbor, Mich., USA). SK-BR-3 and SK-OV-3 cells were cultured in McCoys 5A medium (Lonza; Walkersville, Md., USA) supplemented with 10% v/w Fetal Bovine Serum (FBS), Heat-inactivated (HI) (Gibco-Life Technologies; Carlsbad, Calif.) and 80 U/mL Pen/Strep (Gibco-Life Technologies), at 37° C. in a humidified incubator under 5% CO2 atmosphere. […]
Cells in complete growth medium were plated in 96-well plates (90 μL/well) and incubated at 37° C., 5% CO2 at the following cell densities: 6500 SK-BR-3, 4000 SW-620, 2500 A-549, 10000 BT-474, 3000 Jurkat Clone E6-1, 5000 AU-565, 1250 FaDu, 1250 BxPC-3, 1000 HeLa, 7500 MV4-11, 1000 RAJI, 3000 Jurkat NucLight Red, and 4000 SK-OV-3 cells per well. […] Percentage cell survival was calculated by dividing the measured luminescence for each free drug or ADC according to the concentration with the average mean of untreated cells (1% or 0.1% DMSO control (for free drugs) or 100% complete growth medium (for ADCs)) multiplied by 100. […]

SK-BR-3 cells = type: cell-based, human; conditions: Homo sapiens
In short: as §1

MV4-11 cells = type: cell-based; conditions: Homo sapiens, free antifolate drugs, Table 1d
Protocol: (§5) Human tumor cell lines SK-BR-3, SW-620, A-549, BT-474, Jurkat Clone E6-1, AU-565, and SK-OV-3 were obtained from American Type Culture Collection (Rockville, Md., USA). FaDu, BxPC-3, HeLa, MV4-11, and RAJI cell lines were obtained from Deutsche Sammlung von Mikroorganismen und Zellkulturen (Leipzig, Germany). Jurkat NucLight Red cells were obtained from Essen BioScience Inc. (Ann Arbor, Mich., USA). SK-BR-3 and SK-OV-3 cells were cultured in McCoys 5A medium (Lonza; Walkersville, Md., USA) supplemented with 10% v/w Fetal Bovine Serum (FBS), Heat-inactivated (HI) (Gibco-Life Technologies; Carlsbad, Calif.) and 80 U/mL Pen/Strep (Gibco-Life Technologies), at 37° C. in a humidified incubator under 5% CO2 atmosphere. SW-620 cells were similarly maintained in RPMI 1640 medium (Lonza), containing 10% v/w FBS HI and 80 U/mL Pen/Strep. A-549 cells were similarly maintained in F-12K Nutrient Mixture (1×) (Gibco-Life Technologies) media supplemented with 80 U/mL Pen/Strep and 5% v/w FBS, which was Qualified (Q) (Gibco-Life Technologies). BT-474 and AU-565 cells were similarly maintained in RPMI 1640 medium (Lonza), containing 10% v/w FBS, which was Qualified (Q) (Gibco-Life Technologies), and 80 U/mL Pen/Strep. Jurkat Clone E6-1, BxPC-3, HeLa, MV4-11, and RAJI cells were similarly maintained in RPMI 1640 medium (Lonza), containing 10% v/w FBS HI and 80 U/mL Pen/Strep. Jurkat NucLight Red cells were similarly maintained in RPMI 1640 medium (Lonza), containing 10% v/w FBS HI, 80 U/mL Pen/Strep and 0.5 μg/mL Puromycin (Gibco-Life Technologies). FaDu cells were cultured in EMEM medium (Lonza) supplemented with 10% v/w FBS HI (Gibco-Life Technologies), 1× GlutaMAX (Gibco-Life Technologies), and 80 U/mL Pen/Strep (Gibco-Life Technologies), at 37° C. in a humidified incubator under 5% CO2 atmosphere.
(§6) Cells in complete growth medium were plated in 96-well plates (90 μL/well) and incubated at 37° C., 5% CO2 at the following cell densities: 6500 SK-BR-3, 4000 SW-620, 2500 A-549, 10000 BT-474, 3000 Jurkat Clone E6-1, 5000 AU-565, 1250 FaDu, 1250 BxPC-3, 1000 HeLa, 7500 MV4-11, 1000 RAJI, 3000 Jurkat NucLight Red, and 4000 SK-OV-3 cells per well. After an overnight incubation, 10 serial log 10 dilutions of the free drugs were made in DMSO (Sigma-Aldrich). These free drug dose-response curves were 10-times further diluted in complete growth medium. For the ADCs according to the invention 10 serial log 10 dilutions were made in complete growth medium. 10 μL of a composition comprising a free drug or an ADC according to the invention was added to the assay plate (final DMSO content for free drugs was 1%). […] Cell viability was assessed after 6 days using a luminescent assay kit (CellTiter-Glo™ (CTG), Promega Corporation) according to the manufacturer's instructions. Percentage cell survival was calculated by dividing the measured luminescence for each free drug or ADC according to the concentration with the average mean of untreated cells (1% or 0.1% DMSO control (for free drugs) or 100% complete growth medium (for ADCs)) multiplied by 100.
as §4

HeLa cells = type: cell-based; conditions: Homo sapiens, free antifolate drugs, Table 1d
Protocol: as §5, §6, §4

RAJI cells = type: cell-based; conditions: Homo sapiens, free antifolate drugs, Table 1d
Protocol: as §5, §6, §4

AU-565 cells = type: cell-based, human; conditions: Homo sapiens, AU565, free antifolate drugs, Table 1c
In short: as §1

[2] = SK-BR-3, 24 h, free antifolate drugs, Table 1d

Row | IC50 ([1]; 24 h, Table 1d) | IC50 (BxPC-3 cells) | IC50 (Jurkat Clone E6-1 cells) | IC50 (SK-BR-3 cells; [2]) | IC50 ([1]; Table 1c) | IC50 (MV4-11 cells) | IC50 (HeLa cells) | IC50 (RAJI cells) | IC50 (SK-BR-3 cells; SK-BR-3, free antifolate drugs, Table 1c) | SMILES | IC50 (FaDu cells) | IC50 (AU-565 cells)
1 | 0.66 nM | 0.78 nM | 0.78 nM | 0.86 nM | – | – | – | – | – | Nc1ccc(C(=O)NCCC[C@H](NC(=O)c2ccc(CCc3cnc4nc(N)nc(N)c4n3)cc2O)C(=O)O)c(-c2nnn[nH]2)c1 [XT162, (S)-5-(4-Amino-2-(1H-tetrazol-5-yl)benzamido)-2-(4-(2-(2,4-diaminopteridin-6-yl)ethyl)-2-hydroxybenzamido)pentanoic acid] | 0.44 nM | –
2 | 0.79 nM | 0.71 nM | – | 0.63 nM | 0.6 nM | 0.62 nM | 0.11 nM | 0.6 nM | 0.44 nM | Nc1ccc(C(=O)NCCC[C@H](NC(=O)c2ccc(CCc3ccc4nc(N)nc(N)c4c3Cl)cc2)C(=O)O)c(-c2nnn[nH]2)c1 [XT123, (S)-5-(4-amino-2-(1H-tetrazol-5-yl)benzamido)-2-(4-(2-(2,4-diamino-5-chloroquinazolin-6-yl)ethyl)benzamido)pentanoic acid] | 0.19 nM | 0.35 nM
